Where two headings read alike, the source gives them in different places.
Experiments:
[1] = tested on: human lymphocytes; assay: Micronucleus (MN) assay, cytokinesis block; assay type: cell-based
Method: The MN assay was performed using blood samples from healthy, nonsmoking males, as provided by the AVIS (Italian Association of Voluntary Blood Donors). […] Cytochalasin-B was added 44 hours after the start of incubation at a final concentration of 6 μg/mL; at 48 hours, the lymphocytes were treated with the different drugs. […] Each treatment was tested with cells from two donors, performed in duplicate separate cultures (i.e., four cultures were set up for each treatment). After incubation, the lymphocytes were collected and resuspended in a mild hypotonic solution (0.075 M KCl) and then added with an ice-cold 5 : 3 acetic acid : methanol solution. After centrifugation (500 g, 10 min), the pellets were resuspended in cold (-20°C) methanol and maintained at -20°C (at least 24 hours). […] Scoring was done using an […] (Munich, Germany) light microscope at 1000X magnification. […] NDI data were analyzed by Student's t-test.

[2] = tested on: immortalized lymphocytes (Epstein-Barr virus lymphoblastoid cell line); assay: Long-term exposure cytotoxicity assay (MTS); assay type: cell-based, human; settings: 48 hours treatment
[3] = therapeutically treated patients; no reference given; cited from earlier work
[4] = tested on: Salmonella typhimurium TA100; settings: TA100 without S9
[5] = tested on: Salmonella typhimurium TA98; settings: TA98 without S9

Compound: Cc1ncc([N+](=O)[O-])n1CCO [MTZ, 2-(2-methyl-5-nitro-1H-imidazol-1-yl)ethanol]
- NDI ([1]; 24h, 5.9 µM): 1.97± 0.07
- NDI (%) ([1]; 24h, 5.9 µM): 100± 4%
- NDI ([1]; 24h, 11.7 µM): 1.97± 0.05
- NDI (%) ([1]; 24h, 11.7 µM): 100± 3%
- NDI ([1]; 24h, 46.8 µM): 2.01± 0.10
- NDI (%) ([1]; 24h, 46.8 µM): 102± 5%
- NDI ([1]; 24h, 93.6 µM): 1.99± 0.04
- NDI (%) ([1]; 24h, 93.6 µM): 101± 2%
- NDI ([1]; 24h, 146.2 µM): 1.97± 0.10
- NDI (%) ([1]; 24h, 146.2 µM): 100± 5%
- NDI ([1]; 24h, 292.4 µM): 2.01± 0.03
- NDI (%) ([1]; 24h, 292.4 µM): 102± 2%
- NDI ([1]; 24h, 584.8 µM): 1.94± 0.06
- NDI (%) ([1]; 24h, 584.8 µM): 98± 3%
- NDI ([1]; 72h, 2.9 µM): 1.74± 0.11
- NDI (%) ([1]; 72h, 2.9 µM): 100± 6%
- NDI ([1]; 72h, 5.9 µM): 1.75± 0.17
- NDI (%) ([1]; 72h, 5.9 µM): 101± 10%
- NDI ([1]; 72h, 11.7 µM): 1.74± 0.10
- NDI (%) ([1]; 72h, 11.7 µM): 100± 6%
- NDI ([1]; 72h, 46.8 µM): 1.81± 0.09
- NDI ([1]; 72h, 93.6 µM): 1.73± 0.08
- NDI (%) ([1]; 72h, 93.6 µM): 100± 5%
- NDI ([1]; 72h, 146.2 µM): 1.84± 0.11
- NDI (%) ([1]; 72h, 146.2 µM): 106±6%
- NDI ([1]; 72h, 292.4 µM): 1.76± 0.07
- NDI (%) ([1]; 72h, 292.4 µM): 102± 4%
- NDI ([1]; 72h, 584.8 µM): 1.74± 0.12
- NDI (%) ([1]; 72h, 584.8 µM): 100± 7%
- Effect on nuclear division (NDI) ([1]; 72 hours treated lymphocytes): did not induce any alteration
- Cytotoxic effect on cultured lymphocytes [2]: did not show any significant effects
- Plasmatic concentration in treated patients [3]: 8 to 13 µg/mL

Compound: CCN(CC)CCNc1ccc(CO)c2sc3ccccc3c(=O)c12 [HYC, hycantone]
- Revertant/plate ([4]; positive control 75 μg/plate): 968 ± 103
- Revertant/plate ([5]; positive control 75 μg/plate): 870 ± 90

Compound: bleomycin
- MN frequency in binucleated cells ([1]; positive control, 6µg/ml): 26.0± 4.0 x10-3 BN

Compound: NC(=O)C(=Cc1ccc([N+](=O)[O-])o1)c1ccco1 [FYFA, 2-(2-furyl)-3-(5-nitro-2-furyl)acrylamide]
- Revertant/plate ([4]; 20 ng/plate): 1133 ± 70
- Revertant/plate ([5]; 20 ng/plate): 189 ± 16

From PMC2963127, “Genotoxicity Revaluation of Three Commercial Nitroheterocyclic Drugs: Nifurtimox, Benznidazole, and Metronidazole” (Journal of Parasitology Research, 2009)
